Read-outs that look alike come from different tables or passages of the source.
What was measured:
Format in all cases: cell-based
KM12 = experiment: NCI60 one-dose screen; conditions: Homo sapiens; KM12, 10 μM, one-dose; read-out: Growth percent
NCI-H226 [1] = experiment: NCI60 one-dose screen; conditions: Homo sapiens; NCI-H226, 10 μM, one-dose; read-out: Growth percent
786-0 = experiment: NCI60 five-dose screen; conditions: Homo sapiens; 786-0, Renal Cancer, five-dose; read-out: GI50
A549/ATCC = experiment: NCI60 five-dose screen; conditions: Homo sapiens; A549/ATCC, Non-small Cell Lung Cancer, five-dose; read-out: GI50
HT29 [2] = experiment: NCI60 one-dose screen; conditions: Homo sapiens, HT-29; HT29, 10 μM, one-dose; read-out: Growth percent
OVCAR-4 = experiment: NCI60 five-dose screen; conditions: Homo sapiens; OVCAR-4, Ovarian Cancer, five-dose; read-out: GI50
SF-295 [3] = experiment: NCI60 five-dose screen; conditions: Homo sapiens; SF-295, CNS Cancer, five-dose; read-out: GI50
MCF7 = experiment: NCI60 five-dose screen; conditions: Homo sapiens, read-out: GI50
Colon Cancer panel = experiment: NCI60 five-dose screen, panel mean; conditions: Homo sapiens; mean over Colon Cancer panel; read-out: Mean GI50
OVCAR-3 = experiment: NCI60 five-dose screen; conditions: Homo sapiens; OVCAR-3, Ovarian Cancer, five-dose; read-out: GI50
NCI-H226 [4] = experiment: NCI60 five-dose screen; conditions: Homo sapiens; NCI-H226, Non-small Cell Lung Cancer, five-dose; read-out: GI50
SK-OV-3 = experiment: NCI60 five-dose screen; conditions: Homo sapiens; SK-OV-3, Ovarian Cancer, five-dose; read-out: GI50
SK-MEL-28 = experiment: NCI60 five-dose screen; conditions: Homo sapiens; SK-MEL-28, Melanoma, five-dose; read-out: GI50
COLO 205 = experiment: NCI60 one-dose screen; conditions: Homo sapiens; COLO 205, 10 μM, one-dose; read-out: Growth percent
SF-268 = experiment: NCI60 one-dose screen; conditions: Homo sapiens; SF-268, 10 μM, one-dose; read-out: Growth percent
HCT-15 [5] = experiment: NCI60 one-dose screen; conditions: Homo sapiens; HCT-15, 10 μM, one-dose; read-out: Growth percent
Ovarian Cancer panel = experiment: NCI60 five-dose screen, panel mean; conditions: Homo sapiens; mean over Ovarian Cancer panel; read-out: Mean GI50
[6] = system: Non-small Cell Lung Cancer panel; experiment: NCI60 five-dose screen, panel mean; conditions: Homo sapiens; mean over Non-small Cell Lung Cancer panel; read-out: Mean GI50
MDA-MB-468 = experiment: NCI60 one-dose screen; conditions: Homo sapiens; MDA-MB-468, 10 μM, one-dose; read-out: Growth percent
BT-549 [7] = experiment: NCI60 five-dose screen; conditions: Homo sapiens; BT-549, Breast Cancer, five-dose; read-out: GI50
NCI-H23 = experiment: NCI60 one-dose screen; conditions: Homo sapiens; NCI-H23, 10 μM, one-dose; read-out: Growth percent
CAKI-1 = experiment: NCI60 one-dose screen; conditions: Homo sapiens; CAKI-1, 10 μM, one-dose; read-out: Growth percent
SN12C = experiment: NCI60 five-dose screen; conditions: Homo sapiens, Renal Cancer, five-dose, read-out: GI50
MOLT-4 [8] = experiment: NCI60 one-dose screen; conditions: Homo sapiens; MOLT-4, 10 μM, one-dose; read-out: Growth percent
SW-620 = experiment: NCI60 one-dose screen; conditions: Homo sapiens; SW-620, 10 μM, one-dose; read-out: Growth percent
RXF 393 = experiment: NCI60 one-dose screen; conditions: Homo sapiens; RXF 393, 10 μM, one-dose; read-out: Growth percent
SF-295 [9] = experiment: NCI60 one-dose screen; conditions: Homo sapiens; SF-295, 10 μM, one-dose; read-out: Growth percent
HCT-116 = experiment: NCI60 five-dose screen; conditions: Homo sapiens; HCT-116, Colon Cancer, five-dose; read-out: GI50
PC-3 = experiment: NCI60 one-dose screen; conditions: Homo sapiens; PC-3, 10 μM, one-dose; read-out: Growth percent
UACC-62 = experiment: NCI60 five-dose screen; conditions: Homo sapiens; UACC-62, Melanoma, five-dose; read-out: GI50
SNB-19 = experiment: NCI60 five-dose screen; conditions: Homo sapiens, read-out: GI50
OVCAR-8 [10] = experiment: NCI60 one-dose screen; conditions: Homo sapiens; OVCAR-8, 10 μM, one-dose; read-out: Growth percent
M14 [11] = experiment: NCI60 one-dose screen; conditions: Homo sapiens; M14, 10 μM, one-dose; read-out: Growth percent
MDA-MB-435 = experiment: NCI60 five-dose screen; conditions: Homo sapiens; MDA-MB-435, Melanoma, five-dose; read-out: GI50
Renal Cancer panel = experiment: NCI60 five-dose screen, panel mean; conditions: Homo sapiens; mean over Renal Cancer panel; read-out: Mean GI50
TK-10 = experiment: NCI60 one-dose screen; conditions: Homo sapiens; TK-10, 10 μM, one-dose; read-out: Growth percent
A498 = experiment: NCI60 five-dose screen; conditions: Homo sapiens; A498, Renal Cancer, five-dose; read-out: GI50
UACC-257 = experiment: NCI60 five-dose screen; conditions: Homo sapiens, read-out: GI50
M14 [12] = experiment: NCI60 five-dose screen; conditions: Homo sapiens; M14, Melanoma, five-dose; read-out: GI50
SK-MEL-5 = experiment: NCI60 five-dose screen; conditions: Homo sapiens; SK-MEL-5, Melanoma, five-dose; read-out: GI50
CNS Cancer panel = experiment: NCI60 five-dose screen, panel mean; conditions: Homo sapiens; mean over CNS Cancer panel; read-out: Mean GI50
OVCAR-8 [13] = experiment: NCI60 five-dose screen; conditions: Homo sapiens; OVCAR-8, Ovarian Cancer, five-dose; read-out: GI50
HCT-15 [14] = experiment: NCI60 five-dose screen; conditions: Homo sapiens; HCT-15, Colon Cancer, five-dose; read-out: GI50
MOLT-4 [15] = experiment: NCI60 five-dose screen; conditions: Homo sapiens; MOLT-4, Leukemia, five-dose; read-out: GI50
HCC-2998 = experiment: NCI60 one-dose screen; conditions: Homo sapiens; HCC-2998, 10 μM, one-dose; read-out: Growth percent
HT29 [16] = experiment: NCI60 five-dose screen; conditions: Homo sapiens, HT-29; HT29, Colon Cancer, five-dose; read-out: GI50
BT-549 [17] = experiment: NCI60 one-dose screen; conditions: Homo sapiens; BT-549, 10 μM, one-dose; read-out: Growth percent

## CC[C@]12C=CCN3CC[C@@]4(c5ccc(OC)cc5N(C)[C@H]4[C@@](O)(C(=O)OC)[C@@H]1OC(=O)CCC[P+](c1cc(C)c(OC)c(C)c1)(c1cc(C)c(OC)c(C)c1)c1cc(C)c(OC)c(C)c1)[C@@H]32 [9e]
KM12
  activity at 10 µM: -95%
NCI-H226 [1]
  activity at 10 µM: -99.3%
786-0
  GI50: 239 nM
A549/ATCC
  GI50: 275 nM
HT29 [2]
  activity at 10 µM: -97.5%
OVCAR-4
  GI50: 271 nM
SF-295 [3]
  GI50: 213 nM
MCF7; MCF7, MCF7, Breast Cancer, five-dose
  GI50: 44 nM
MCF7; MCF7, breast cancer MCF7, text
  GI50: < 100 nM
Colon Cancer panel
  GI50: 240 nM
OVCAR-3
  GI50: 147 nM
NCI-H226 [4]
  GI50: 230 nM
SK-OV-3
  GI50: 232 nM
SK-MEL-28
  GI50: 272 nM
COLO 205
  activity at 10 µM: -96.6%
SF-268
  activity at 10 µM: -97.6%
HCT-15 [5]
  activity at 10 µM: -93.9%
Ovarian Cancer panel
  GI50: 940 nM
[6]
  GI50: 230 nM
MDA-MB-468
  activity at 10 µM: -99.4%
BT-549 [7]
  GI50: 170 nM
NCI-H23
  activity at 10 µM: -98.1%
CAKI-1
  activity at 10 µM: -97%
SN12C
  GI50: 159 nM
MOLT-4 [8]
  activity at 10 µM: -98.3%
SW-620
  activity at 10 µM: -95.8%
RXF 393
  activity at 10 µM: -98.6%
SF-295 [9]
  activity at 10 µM: -98.6%
HCT-116
  GI50: 223 nM
PC-3
  activity at 10 µM: -97.7%
UACC-62
  GI50: 160 nM
SNB-19; SNB-19, CNS cancer SNB-19, text
  GI50: < 100 nM
SNB-19; SNB-19, SNB-19, CNS Cancer, five-dose
  GI50: 59 nM
OVCAR-8 [10]
  activity at 10 µM: -95.5%
M14 [11]
  activity at 10 µM: -97.3%
MDA-MB-435
  GI50: 231 nM
Renal Cancer panel
  GI50: 440 nM
TK-10
  activity at 10 µM: -99.3%
A498
  GI50: 314 nM
UACC-257; UACC-257, UACC-257, Melanoma, five-dose
  GI50: 38 nM
UACC-257; UACC-257, melanoma UACC-257, text
  GI50: < 100 nM
M14 [12]
  GI50: 299 nM
SK-MEL-5
  GI50: 138 nM
CNS Cancer panel
  GI50: 180 nM
OVCAR-8 [13]
  GI50: 300 nM
HCT-15 [14]
  GI50: 760 nM
MOLT-4 [15]
  GI50: 164 nM
HCC-2998
  activity at 10 µM: -97.9%
HT29 [16]
  GI50: 151 nM
BT-549 [17]
  activity at 10 µM: -98%

From article PMC12028158, “Synthesis and In Vitro Evaluation of the Anticancer Effect of Novel Phosphonium Vindoline Derivatives” (International Journal of Molecular Sciences, 2025)
